Data reported in patent US20240181081A1, “Compositions and Methods for Treatment of Myotonic Dystrophy Type 1 with CRISPR/SACAS9” (Vertex Pharmaceuticals Incorporated, priority 2021, published 2024).
Several values for one entry are separate records, joined by “and”; a condition that tells them apart may be missing. Identical values can stand only once.

Experiments:
[1] = system: CTG repeat expansion in the 3′ UTR of human DMPK gene; assay: DOUBLE-cut screening: CTG repeat excision by loss-of-signal ddPCR in primary DM1 patient myoblasts; assay type: cell-based; details: sgRNA pair RNP, mean of upstream and downstream ddPCR assays; for % of CTG repeat excision efficiency by ddPCR (DNA-PKi): 3 μM Compound 6 for 48 hrs; for % of CTG repeat excision efficiency by ddPCR (Vehicle): DMSO 48 hrs
Experimental: (§1) RNPs were assembled with recombinant SaCas9 protein (Aldevron) and chemically modified sgRNAs (Synthego) at a ratio of 1:3 (protein:sgRNA). For SINGLE-cut screening, RNP complexes were assembled with 30 pmol of SaCas9 and 90 pmol of sgRNA in P5 Primary Cell Nucleofector Solution (Lonza). After incubation at room temperature for 20 minutes, 10 μL of RNP complex was mixed with two hundred thousand primary myoblasts resuspended in 10 μL of P5 Nucleofector Solution. For DOUBLE-cut screening, RNP complexes were first assembled for individual sgRNAs with 20 pmol of SaCas9 protein and 60 pmol of sgRNAs in 5 μL of P5 Nucleofector Solution. After incubation at room temperature for 20 minutes, the two RNP complexes (one for upstream sgRNA and one for downstream sgRNA) were mixed at 1:1 ratio and then further mixed with two hundred thousand primary myoblasts resuspended in 10 μL of P5 Nucleofector Solution.
(§2) The Nucleofector 96-well Shuttle System (Lonza) was used to deliver the SaCa9/sgRNA RNPs into primary DM1 patient myoblasts using the nucleofection program CM138. Following nucleofection, myoblasts from each well of nucleofection shuttle were split into six wells of the 96-well cell culture plate (Greiner, 655090) coated with matrigel. The first three wells were treated with DMSO for 48 hrs before changing to fresh myoblast growth medium, and the other three wells were treated with 3 μM of DNA-PKi Compound 6 for 48 hrs before changing to fresh myoblast growth medium. 72 hrs post nucleofection, two wells of DMSO-treated myoblasts and two wells of DNA-PKi-treated myoblasts from each nucleofection were harvested for genomic DNA extraction using the Kingfisher Flex purification system (Thermal Fisher), whereas one well of DMSO-treated myoblasts and one well of DNA-PKi-treated myoblasts were stained for RNA foci by FISH staining.
The primers and probes of ddPCR were designed using the online primer design software Primer3Plus (http://www.bioinformatics.nl/cgi-bin/primer3plus/primer3plus.cgi). The two Target primers/probe sets were used to detect CTG repeat excision, and the Reference primers/probe set was used to amplify a region located in Exon 1 of human DMPK gene and it served as a reference control for the Target sets. The 24 μL of ddPCR reaction consisted of 12 μL of Supermix for Probes (no dUTP) (Bio-Rad Laboratories), 1 μL of Reference primers mix (21.6 μM), 1 μL of Reference probe (6 μM), 1 μL of Target primers mix (21.6 μM), 1 μL of Target probe (6 μM), and 8 μL of sample genomic DNA. Droplets were generated using probe oil with the QX200 Droplet Generator (Bio-Rad Laboratories). Droplets were transferred to a 96-well PCR plate, sealed and cycled in a C1000 deep well Thermocycler (Bio-Rad Laboratories) under the following cycling protocol: 1 cycle at 95° C. for 10 min; 40 cycles of 94° C. for 30 sec, and 58° C. for 1 min; 1 cycle at 98° C. for 10 min (for enzyme inactivation). The cycled plate was then transferred and read in the FAM and HEX channels using the Bio-Rad QX200 Droplet Reader (Bio-Rad Laboratories). ddPCR analysis was performed with the Bio-Rad QuantaSoft Pro Software.
Next, DOUBLE-cut screening was performed to assess the efficiency of paired sgRNAs-induced CTG repeat excision and RNA foci reduction. 90 SaCas9 sgRNA pairs formed by one upstream sgRNA and one downstream sgRNA were assembled with recombinant SaCas9 protein into RNP complex and nucleofected into primary DM1 patient myoblasts. Nucleofected myoblasts were treated with either DMSO (vehicle) or 3 μM of Compound 6 (DNA-PKi) for 48 hrs. 72 hrs post nucleofection, myoblasts were subjected to either genomic DNA isolation or RNA foci staining.
One upstream and one downstream loss-of-signal droplet digital PCR (ddPCR) assays were used to determine the efficiency of CTG repeat excision. ddPCR signals would be abolished upon excision of the CTG repeat expansion in these loss-of-signal ddPCR assays. […]

[2] = system: CUG RNA foci in primary DM1 patient myoblasts; assay: DOUBLE-cut screening: FISH staining of RNA foci in primary DM1 patient myoblasts; assay type: cell-based, human; details: sgRNA pair RNP, 72 hrs post nucleofection; for % of CUG foci free nuclei (DNA-PKi): 3 μM Compound 6 for 48 hrs; for % of CUG foci free nuclei (Vehicle): DMSO 48 hrs
Experimental: as §1, §2
Primary myoblasts were fixed for 15 min with 4% paraformaldehyde (PFA) and washed five times with 1×PBS for 10 min each at room temperature. Before staining, cells were permeabilized with 0.5% triton X-100 in 1×PBS for 5 min at room temperature, and then washed with 30% formamide and 2× saline-sodium citrate (SSC) mixture for 10 min at room temperature. Cells were then stained with 1 ng/μL of Cy3-PNA(CAG) 5 probe (PNA Bio, F5001) diluted in 30% formamide, 2×SSC, 2 μg/mL BSA, 66 μg/mL yeast tRNA, and 2 mM vanadyl complex for 15 min at 80° C. Following probe staining, cells were then washed in 30% formamide and 2×SSC mixture for 30 min at 42° C., then washed in 30% formamide and 2×SSC mixture for 30 min at 37° C., and then washed in 1×SSC solution for 10 min at room temperature, and finally washed in 1×PBS for 10 min at room temperature. Cells were next stained with anti-MBNL1 antibody (Santa Cruz, 3A4) diluted in 1% bovine serum albumin (BSA) for overnight at 4° C., and washed twice with 1×PBS for 10 min each at room temperature. Cells were then incubated with the secondary antibody goat […] Alexa 647 (Thermo Fisher, A32728) diluted in 1% BSA for 1 hr at room temperature, and washed twice with 1×PBS for 10 min each at room temperature. Next, cells were stained with Hoechst solution (Thermo Fisher, H3569) at 0.1 mg/ml for 5 min, and washed once with 1×PBS for 5 min. PBS was aspirated and fresh 100 μl of fresh PBS was added to each well. High-throughput acquisition of images was completed with the ImageXpress Micro Confocal High-Content Imaging System (Molecular Devices). RNA foci quantifications were accomplished with a customized analysis module of the MetaXpress program (Molecular Devices).
Next, DOUBLE-cut screening was performed to assess the efficiency of paired sgRNAs-induced CTG repeat excision and RNA foci reduction. 90 SaCas9 sgRNA pairs formed by one upstream sgRNA and one downstream sgRNA were assembled with recombinant SaCas9 protein into RNP complex and nucleofected into primary DM1 patient myoblasts. […]

Row | Substance | % of CTG repeat excision efficiency by ddPCR (DNA-PKi) [1] | % of CTG repeat excision efficiency by ddPCR (Vehicle) [1] | % of CUG foci free nuclei (DNA-PKi) [2] | % of CUG foci free nuclei (Vehicle) [2]
1 | SaU4 + SaD20: SaCas9 sgRNA pair, SEQ ID NOs: 4 and 28; printed twice in Table 4 (guide 1 CCAGTTCACAACCGCTCCGAGC; guide 2 AGATGGAGGGCCTTTTATTCGC; listed as DNA, chemistry not fully specified) | 65.25% and 59.19% | 53.12% and 52.49% | 84.77% and 83.56% | 59.76% and 81.47%
2 | SaU7 +SaD13: SaCas9 sgRNA pair, SEQ ID NOs: 7 and 21 (guide 1 CGCGGCCGGCGAACGGGGCTCG; guide 2 CCCAACAACCCCAATCCACGTT; listed as DNA, chemistry not fully specified) | 55.97% | 25.62% | 78.52% | 28.69%
3 | SaU1 + SaD15: SaCas9 sgRNA pair, SEQ ID NOs: 1 and 23 (guide 1 GCCCCGGAGTCGAAGACAGTTC; guide 2 GACAATAAATACCGAGGAATGT; listed as DNA, chemistry not fully specified) | 64.96% | 37.54% | 85.70% | 72.80%
4 | SaU1 + SaD5: SaCas9 sgRNA pair, SEQ ID NOs: 1 and 13 (guide 1 GCCCCGGAGTCGAAGACAGTTC; guide 2 GGGTTTGGCAAAAGCAAATTTC; listed as DNA, chemistry not fully specified) | 53.67% | 30.65% | 82.90% | 70.23%
5 | SaU3 + SaD20: SaCas9 sgRNA pair, SEQ ID NOs: 3 and 28 (guide 1 ACTCCGGGGCCCCGTTGGAAGA; guide 2 AGATGGAGGGCCTTTTATTCGC; listed as DNA, chemistry not fully specified) | 64.44% | 40.12% | 83.99% | 72.56%
6 | SaU7 + SaD18: SaCas9 sgRNA pair, SEQ ID NOs: 7 and 26 (guide 1 CGCGGCCGGCGAACGGGGCTCG; guide 2 GGGCCTTTTATTCGCGAGGGTC; listed as DNA, chemistry not fully specified) | 48.08% | 19.71% | 73.07% | 23.22%
7 | SaU2 + SaD18: SaCas9 sgRNA pair, SEQ ID NOs: 2 and 26 (guide 1 ACTCAGTCTTCCAACGGGGCCC; guide 2 GGGCCTTTTATTCGCGAGGGTC; listed as DNA, chemistry not fully specified) | 48.16% | 19.28% | 69.93% | 32.87%
8 | SaU8 + SaD19: SaCas9 sgRNA pair, SEQ ID NOs: 8 and 27 (guide 1 GGCTCGAAGGGTCCTTGTAGCC; guide 2 AGGACCCCCACCCCCGACCCTC; listed as DNA, chemistry not fully specified) | 46.04% | 28.95% | 83.45% | 61.41%
9 | SaU7 + SaD4: SaCas9 sgRNA pair, SEQ ID NOs: 7 and 12 (guide 1 CGCGGCCGGCGAACGGGGCTCG; guide 2 ACTTTGCGAACCAACGATAGGT; listed as DNA, chemistry not fully specified) | 73.99% | 57.96% | 87.34% | 74.84%
10 | SaU2 + SaD10: SaCas9 sgRNA pair, SEQ ID NOs: 2 and 18 (guide 1 ACTCAGTCTTCCAACGGGGCCC; guide 2 TTGGGGGTCCTGTAGCCTGTCA; listed as DNA, chemistry not fully specified) | 66.52% | 38.02% | 82.97% | 75.56%
11 | SaU3 + SaD10: SaCas9 sgRNA pair, SEQ ID NOs: 3 and 18 (guide 1 ACTCCGGGGCCCCGTTGGAAGA; guide 2 TTGGGGGTCCTGTAGCCTGTCA; listed as DNA, chemistry not fully specified) | 69.50% | 44.56% | 86.88% | 75.19%
12 | SaU3 + SaD17: SaCas9 sgRNA pair, SEQ ID NOs: 3 and 25 (guide 1 ACTCCGGGGCCCCGTTGGAAGA; guide 2 TTTATTCGCGAGGGTCGGGGGT; listed as DNA, chemistry not fully specified) | 56.80% | 31.18% | 77.22% | 53.10%
13 | SaU2 + SaD6: SaCas9 sgRNA pair, SEQ ID NOs: 2 and 14 (guide 1 ACTCAGTCTTCCAACGGGGCCC; guide 2 CTTTTGCCAAACCCGCTTTTTC; listed as DNA, chemistry not fully specified) | 45.77% | 24.88% | 65.23% | 31.53%
